Assay results published in ChEMBL document CHEMBL4414672, “Synthesis of certain benzothieno[3,2-d]pyrimidine derivatives as a selective SIRT2 inhibitors” (Eur J Med Chem, 2020).

What was measured:
Assay type in all cases: functional
Hs-578T = assay: Growth inhibition of human Hs 578T cells at 10^-5 M incubated for 48 hrs by sulforhodamine B assay; details: read-out: GI
HL-60(TB) = assay: Growth inhibition of human HL-60(TB) cells at 10^-5 M incubated for 48 hrs by sulforhodamine B assay; details: HL-60, 48 h, read-out: GI
IGROV-1 = assay: Growth inhibition of human IGROV1 cells at 10^-5 M incubated for 48 hrs by sulforhodamine B assay; details: IGROV-1, 48 h, read-out: GI
SNB-19 = assay: Growth inhibition of human SNB19 cells at 10^-5 M incubated for 48 hrs by sulforhodamine B assay; details: SNB-19, 48 h, read-out: GI
SR = assay: Growth inhibition of human SR cells at 10^-5 M incubated for 48 hrs by sulforhodamine B assay; details: read-out: GI
HCT-15 = assay: Growth inhibition of human HCT15 cells at 10^-5 M incubated for 48 hrs by sulforhodamine B assay; details: HCT-15, 48 h, read-out: GI
CAKI-1 = assay: Growth inhibition of human Caki1 cells at 10^-5 M incubated for 48 hrs by sulforhodamine B assay; details: CAKI-1, 48 h, read-out: GI
NCI-H226 = assay: Growth inhibition of human NCI-H226 cells at 10^-5 M incubated for 48 hrs by sulforhodamine B assay; details: NCI-H226, 48 h, read-out: GI
UO-31 = assay: Growth inhibition of human UO31 cells at 10^-5 M incubated for 48 hrs by sulforhodamine B assay; details: UO-31, 48 h, read-out: GI
RXF 393 = assay: Growth inhibition of human RXF393 cells at 10^-5 M incubated for 48 hrs by sulforhodamine B assay; details: RXF 393, 48 h, read-out: GI
NCI-H23 = assay: Growth inhibition of human NCI-H23 cells at 10^-5 M incubated for 48 hrs by sulforhodamine B assay; details: NCI-H23, 48 h, read-out: GI
T47D = assay: Growth inhibition of human T47D cells at 10^-5 M incubated for 48 hrs by sulforhodamine B assay; details: read-out: GI
SK-MEL-28 = assay: Growth inhibition of human SK-MEL-28 cells at 10^-5 M incubated for 48 hrs by sulforhodamine B assay; details: SK-MEL-28, 48 h, read-out: GI
SW-620 = assay: Growth inhibition of human SW620 cells at 10^-5 M incubated for 48 hrs by sulforhodamine B assay; details: SW-620, 48 h, read-out: GI
SK-OV-3 = assay: Growth inhibition of human SKOV3 cells at 10^-5 M incubated for 48 hrs by sulforhodamine B assay; details: SK-OV-3, 48 h, read-out: GI
NCI-H460 = assay: Growth inhibition of human NCI-H460 cells at 10^-5 M incubated for 48 hrs by sulforhodamine B assay; details: NCI-H460, 48 h, read-out: GI
ACHN = assay: Growth inhibition of human ACHN cells at 10^-5 M incubated for 48 hrs by sulforhodamine B assay; details: read-out: GI
HOP-62 = assay: Growth inhibition of human HOP62 cells at 10^-5 M incubated for 48 hrs by sulforhodamine B assay; details: HOP-62, 48 h, read-out: GI
A498 = assay: Growth inhibition of human A498 cells at 10^-5 M incubated for 48 hrs by sulforhodamine B assay; details: A498, 48 h, read-out: GI
Malme-3M = assay: Growth inhibition of human MALME-3M cells at 10^-5 M incubated for 48 hrs by sulforhodamine B assay; details: read-out: GI
K562 = assay: Growth inhibition of human K562 cells at 10^-5 M incubated for 48 hrs by sulforhodamine B assay; details: K562, 48 h, read-out: GI
786-0 = assay: Growth inhibition of human 786-0 cells at 10^-5 M incubated for 48 hrs by sulforhodamine B assay; details: 786-0, 48 h, read-out: GI
TK-10 = assay: Growth inhibition of human TK10 cells at 10^-5 M incubated for 48 hrs by sulforhodamine B assay; details: TK-10, 48 h, read-out: GI
M14 = assay: Growth inhibition of human M14 cells at 10^-5 M incubated for 48 hrs by sulforhodamine B assay; details: M14, 48 h, read-out: GI
BT-549 = assay: Growth inhibition of human BT549 cells at 10^-5 M incubated for 48 hrs by sulforhodamine B assay; details: BT-549, 48 h, read-out: GI
SF-268 = assay: Growth inhibition of human SF268 cells at 10^-5 M incubated for 48 hrs by sulforhodamine B assay; details: SF-268, 48 h, read-out: GI
SF-295 = assay: Growth inhibition of human SF295 cells at 10^-5 M incubated for 48 hrs by sulforhodamine B assay; details: SF-295, 48 h, read-out: GI
SK-MEL-2 = assay: Growth inhibition of human SK-MEL-2 cells at 10^-5 M incubated for 48 hrs by sulforhodamine B assay; details: SK-MEL-2, 48 h, read-out: GI
UACC-62 = assay: Growth inhibition of human UACC62 cells at 10^-5 M incubated for 48 hrs by sulforhodamine B assay; details: UACC-62, 48 h, read-out: GI
PC-3 = assay: Growth inhibition of human PC3 cells at 10^-5 M incubated for 48 hrs by sulforhodamine B assay; details: PC-3, 48 h, read-out: GI
COLO 205 = assay: Growth inhibition of human COLO205 cells at 10^-5 M incubated for 48 hrs by sulforhodamine B assay; details: COLO 205, 48 h, read-out: GI
OVCAR-8 = assay: Growth inhibition of human OVCAR8 cells at 10^-5 M incubated for 48 hrs by sulforhodamine B assay; details: OVCAR-8, 48 h, read-out: GI
MDA-MB-231 = assay: Growth inhibition of human MDA-MB-231 cells at 10^-5 M incubated for 48 hrs by sulforhodamine B assay; details: MDA-MB-231, 48 h, read-out: GI
MDA-MB-468 = assay: Growth inhibition of human MDA-MB-468 cells at 10^-5 M incubated for 48 hrs by sulforhodamine B assay; details: MDA-MB-468, 48 h, read-out: GI
SK-MEL-5 = assay: Growth inhibition of human SK-MEL-5 cells at 10^-5 M incubated for 48 hrs by sulforhodamine B assay; details: SK-MEL-5, 48 h, read-out: GI
SF-539 = assay: Growth inhibition of human SF539 cells at 10^-5 M incubated for 48 hrs by sulforhodamine B assay; details: SF-539, 48 h, read-out: GI
NCI-H322M = assay: Growth inhibition of human NCI-H322M cells at 10^-5 M incubated for 48 hrs by sulforhodamine B assay; details: read-out: GI
MOLT-4 = assay: Growth inhibition of human MOLT4 cells at 10^-5 M incubated for 48 hrs by sulforhodamine B assay; details: MOLT-4, 48 h, read-out: GI

| Compound | inhibition of growth at 10 µM (Hs-578T) [%] | inhibition of growth at 10 µM (HL-60(TB)) [%] | inhibition of growth at 10 µM (IGROV-1) [%] | inhibition of growth at 10 µM (SNB-19) [%] | inhibition of growth at 10 µM (SR) [%] | inhibition of growth at 10 µM (HCT-15) [%] | inhibition of growth at 10 µM (CAKI-1) [%] | inhibition of growth at 10 µM (NCI-H226) [%] | inhibition of growth at 10 µM (UO-31) [%] | inhibition of growth at 10 µM (RXF 393) [%] | inhibition of growth at 10 µM (NCI-H23) [%] | inhibition of growth at 10 µM (T47D) [%] | inhibition of growth at 10 µM (SK-MEL-28) [%] | inhibition of growth at 10 µM (SW-620) [%] | inhibition of growth at 10 µM (SK-OV-3) [%] | inhibition of growth at 10 µM (NCI-H460) [%] | inhibition of growth at 10 µM (ACHN) [%] | inhibition of growth at 10 µM (HOP-62) [%] | inhibition of growth at 10 µM (A498) [%] | inhibition of growth at 10 µM (Malme-3M) [%] | further results |
| --- | --- | --- | --- | --- | --- | --- | --- | --- | --- | --- | --- | --- | --- | --- | --- | --- | --- | --- | --- | --- | --- |
| Oc1ccccc1C1NC(=S)Nc2c1sc1ccc(Cl)cc21 (centres undefined) | 8.15 | -4.7 | 13.6 | 2.48 | 16.3 | -0.05 | 12.9 | 21.8 | -8.34 | 2.85 | 19.4 | 24.8 | -6.12 | -8 | 8.48 | 1.28 | 8.93 | 5.51 | 23.4 | 10.7 | inhibition of growth at 10 µM (K562): 8.3%; inhibition of growth at 10 µM (786-0): 6.17%; inhibition of growth at 10 µM (TK-10): -8.34%; inhibition of growth at 10 µM (M14): 7.43%; inhibition of growth at 10 µM (BT-549): -5%; inhibition of growth at 10 µM (SF-268): 8.44%; inhibition of growth at 10 µM (SF-295): -0.95%; inhibition of growth at 10 µM (SK-MEL-2): 7.35%; inhibition of growth at 10 µM (UACC-62): 13.1%; inhibition of growth at 10 µM (PC-3): 10.2%; inhibition of growth at 10 µM (COLO 205): -1.76%; inhibition of growth at 10 µM (OVCAR-8): 5.15%; inhibition of growth at 10 µM (MDA-MB-231): 27.4%; inhibition of growth at 10 µM (MDA-MB-468): 8.75%; inhibition of growth at 10 µM (SK-MEL-5): 6.32%; inhibition of growth at 10 µM (SF-539): -0.95%; inhibition of growth at 10 µM (NCI-H322M): 5.31%; inhibition of growth at 10 µM (MOLT-4): 9.69% |
| N=C1Nc2c(sc3ccc(Cl)cc23)C(c2cccc([N+](=O)[O-])c2)N1 (centres undefined) | -17.4 | 5.44 | 4.94 | 16.8 | -3.11 | -4.21 | -10.8 | 14.4 | 11.1 | 4.42 | 5.31 | 1.02 | 4.08 | 3.17 | -1.73 | 14.7 | 22.8 | -6.16 | 9.1 | -4.49 | inhibition of growth at 10 µM (K562): 9.47%; inhibition of growth at 10 µM (786-0): 16.5%; inhibition of growth at 10 µM (TK-10): 40.3%; inhibition of growth at 10 µM (M14): -5.05%; inhibition of growth at 10 µM (BT-549): 5.75%; inhibition of growth at 10 µM (SF-268): -1.81%; inhibition of growth at 10 µM (SF-295): -5.78%; inhibition of growth at 10 µM (SK-MEL-2): -19.5%; inhibition of growth at 10 µM (UACC-62): 23.1%; inhibition of growth at 10 µM (PC-3): -10.1%; inhibition of growth at 10 µM (COLO 205): -31%; inhibition of growth at 10 µM (OVCAR-8): 9.4%; inhibition of growth at 10 µM (MDA-MB-231): -0.16%; inhibition of growth at 10 µM (MDA-MB-468): 1.02%; inhibition of growth at 10 µM (SK-MEL-5): -2.55%; inhibition of growth at 10 µM (SF-539): 1.35%; inhibition of growth at 10 µM (NCI-H322M): 4.7%; inhibition of growth at 10 µM (MOLT-4): 21.2% |
| O=[N+]([O-])c1cccc(C2c3sc4ccc(Cl)cc4c3N=C3NN=NN32)c1 (centres undefined) | -11.2 | -9.93 | -11.1 | 7.13 | -7.25 | -16 | -15.7 | 11.5 | 14.5 | 0 | 1.39 | -8.85 | 3.38 | -1.74 | 6.39 | 6.19 | -27.8 | 0.43 | 18.1 | -4.76 | inhibition of growth at 10 µM (K562): -7.43%; inhibition of growth at 10 µM (786-0): 9.33%; inhibition of growth at 10 µM (TK-10): 35.8%; inhibition of growth at 10 µM (M14): -10.9%; inhibition of growth at 10 µM (BT-549): 9.57%; inhibition of growth at 10 µM (SF-268): -8.1%; inhibition of growth at 10 µM (SF-295): 3.68%; inhibition of growth at 10 µM (SK-MEL-2): -23%; inhibition of growth at 10 µM (UACC-62): 21.3%; inhibition of growth at 10 µM (PC-3): -11.3%; inhibition of growth at 10 µM (COLO 205): -7.9%; inhibition of growth at 10 µM (OVCAR-8): -4.72%; inhibition of growth at 10 µM (MDA-MB-231): -4.1%; inhibition of growth at 10 µM (MDA-MB-468): -8.85%; inhibition of growth at 10 µM (SK-MEL-5): -10.9%; inhibition of growth at 10 µM (SF-539): -8.51%; inhibition of growth at 10 µM (NCI-H322M): -3.77%; inhibition of growth at 10 µM (MOLT-4): -1.88% |
